In patent US12589158B2 (priority 2022, dated 2026):
Where a SMILES comes first, the peptide text is derived from it.

Tests used:
db/db mice = assay: Pharmacodynamics in db/db mice, single subcutaneous administration (blood glucose); type: in vivo; details: longest time with random blood glucose P<0.05 vs. vehicle
Method: The “inhibition of blood glucose AUC” as disclosed in the present invention is the reduction percentage of blood glucose AUC in the group taken the test compound as compared with the group taken the Vehicle. Inhibition of blood glucose AUC=(blood glucose AUCVehicle-blood glucose AUCtest compound)/blood glucose AUCVehicle.
In this study, 8-9 week old male db/db mice are used. The db/db mice are placed in an individual ventilated cage (IVC) facility with a controlled temperature (20-26° C.) and humidity (40-70%) and a controlled 12h: 12 h light-dark cycle. The mice received food and water ad libitum. Blood is sampled at the tail tip, and the fasting blood glucose is measured by a Roche blood glucose meter. The mice are randomly divided into groups according to the initial blood glucose and initial body weight (n=6/group), and each group had similar body weight and blood glucose.
After a single subcutaneous administration, the random blood glucoses are recorded at the set time point (0 to 120 hours, the recording of the random blood glucose is stopped until there is no difference between the random blood glucose of the compound and that of the vehicle group), and the daily body weight and food intake are also recorded. The data results are statistically analyzed using GraphPad Prism8, and the statistical differences among the groups are analyzed following a T-Test. […]

human GLP-1 receptor = target: T1, human GLP-1 receptor (Homo sapiens, UniProt P43220); assay: In vitro binding activity to human GLP-1 receptor ([125I]GLP-1, crude cellular membranes); details: ratio of the Ki value of the endogenous ligand to the Ki value of the test compound; larger = stronger binding
T1 construct: expressed in transfected cells; crude membranes
T1 sequence (P43220 24-463): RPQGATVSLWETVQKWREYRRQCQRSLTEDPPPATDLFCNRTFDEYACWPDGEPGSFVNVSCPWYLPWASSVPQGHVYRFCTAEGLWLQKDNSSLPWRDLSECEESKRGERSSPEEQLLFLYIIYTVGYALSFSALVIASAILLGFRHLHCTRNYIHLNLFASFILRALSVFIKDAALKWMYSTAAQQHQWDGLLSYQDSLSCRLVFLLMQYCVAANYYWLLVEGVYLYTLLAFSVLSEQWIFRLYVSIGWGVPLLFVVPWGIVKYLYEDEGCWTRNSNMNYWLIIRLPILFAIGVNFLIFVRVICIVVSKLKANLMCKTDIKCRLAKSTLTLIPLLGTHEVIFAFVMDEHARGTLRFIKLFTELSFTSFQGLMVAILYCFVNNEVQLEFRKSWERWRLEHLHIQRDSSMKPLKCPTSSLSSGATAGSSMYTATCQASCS
Method: 89 μL of membrane dissolved in binding buffer (50 mM Hepes, pH 7.4, 5 mM MgCl2, 5 mM EDTA, 0.005% TWEEN, 0.005% HSA) is transferred to a 96-well test plate (5 μg/well). The compound is serially diluted in DMSO, and then, 1 μL of the diluted compound or 100% DMSO is added to the test plate containing the membrane solution. 10 μL of [^125I] […] The test plate is left at room temperature for 90 minutes. The membrane complexes are harvested into a GF/B plate pre-coated with 0.5% PEI by using a Cell Harvester, and washed for 3 times with 500 μL of pre-cooled elution buffer (50 mM Hepes, pH 7.4, 500 mM NaCl) at 4° C. After drying at 37° C. for 2 hours, 50 μL of scintillation fluid is added to each well. The plate is read with a MicroBeta2 scintillation counter after sealing and settling for at least 1 hour so as to determine the membrane bound radioligand level.
(§1) The absolute IC50 concentration of the compound is derived by non-linear regression of the binding percent of [^125I] […] The IC50 concentration is converted to Ki (Ki is the inhibition constant) using the Cheng-Prusoff equation.

[1] = Pharmacokinetics following single administration in SD rat; parameters: species or system SD rats; details: in vivo, sc, 50 nmol/kg
In short: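 Male SD rats (230–268 g, n=3) dosed once at 50.0 nmol/kg s.c. or 25.0 nmol/kg i.v. Plasma protein precipitated with acetonitrile containing internal standards; drug concentration measured by LC-MS/MS.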

human GIP receptor = target: T2, human GIP receptor (Homo sapiens, UniProt P48546); assay: In vitro binding activity to human GIP receptor ([125I]GIP, crude cellular membranes); details: ratio of the Ki value of the endogenous ligand to the Ki value of the test compound; larger = stronger binding
T2 construct: expressed in transfected cells; crude membranes
T2 sequence (P48546 22-466): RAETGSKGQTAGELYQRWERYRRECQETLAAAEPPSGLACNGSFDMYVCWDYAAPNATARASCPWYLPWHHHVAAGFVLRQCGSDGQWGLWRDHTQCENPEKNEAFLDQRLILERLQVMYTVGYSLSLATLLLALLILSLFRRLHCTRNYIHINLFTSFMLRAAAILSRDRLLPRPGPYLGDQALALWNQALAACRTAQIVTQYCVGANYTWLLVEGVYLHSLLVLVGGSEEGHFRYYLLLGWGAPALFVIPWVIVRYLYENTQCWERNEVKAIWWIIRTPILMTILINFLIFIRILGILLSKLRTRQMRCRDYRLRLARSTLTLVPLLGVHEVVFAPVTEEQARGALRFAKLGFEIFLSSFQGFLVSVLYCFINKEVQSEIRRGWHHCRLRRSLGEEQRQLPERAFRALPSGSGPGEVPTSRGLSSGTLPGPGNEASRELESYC
Method: The compound is serially diluted in DMSO, and then, 2 μL of the diluted compounds or 100% DMSO is added to the test plate containing the membrane solution. […] The test plate is left at room temperature for 90 minutes. […] After drying at 37° C. for 2 hours, 50 μL of scintillation fluid is added to each well. The plate is read with a MicroBeta2 scintillation counter after sealing and settling for at least 1 hour so as to determine the membrane bound radioligand level.
as §1

Structure (SMILES)	Hypoglycemic Duration (db/db mice; Group 2, single s.c. 10 nmol/kg) [h]	GLP-1R Ki ratio (human GLP-1 receptor)	MRT inf [1] [h]	MRT last [1] [h]	Hypoglycemic Duration (db/db mice; Group 1, single s.c. 10 nmol/kg) [h]	GIPR Ki ratio (human GIP receptor)
CC[C@H](C)[C@H](NC(=O)C(C)(C)NC(=O)[C@H](Cc1ccc(O)cc1)NC(=O)[C@H](CC(=O)O)NC(=O)[C@H](CO)NC(=O)[C@@H](NC(=O)C(C)(Cc1ccccc1)NC(=O)[C@@H](NC(=O)CNC(=O)[C@H](CCC(=O)O)NC(=O)C(C)(C)NC(=O)[C@@H](N)Cc1ccc(O)cc1)[C@@H](C)O)[C@@H](C)O)C(=O)NC(C)(C)C(=O)N[C@@H](CC(C)C)C(=O)N[C@@H](CC(=O)O)C(=O)N[C@@H](CCCCN)C(=O)N[C@@H](CCC(N)=O)C(=O)N[C@@H](C)C(=O)N[C@@H](CCC(N)=O)C(=O)N[C@@H](C)C(=O)N[C@@H](CCC(=O)O)C(=O)N[C@@H](Cc1ccccc1)C(=O)N[C@H](C(=O)N[C@@H](CCCCNC(=O)COCCOCCNC(=O)COCCOCCNC(=O)CC[C@H](NC(=O)CC[C@H](NC(=O)CC[C@H](NC(=O)CCCCCCCCCCCCCCCCC(=O)O)C(=O)O)C(=O)O)C(=O)O)C(=O)N[C@@H](Cc1c[nH]c2ccccc12)C(=O)N[C@@H](CC(C)C)C(=O)N[C@@H](CC(C)C)C(=O)N[C@@H](CCCCN)C(=O)NCC(=O)NCC(=O)N1CCC[C@H]1C(=O)N[C@@H](CO)C(=O)N[C@@H](CO)C(=O)NCC(=O)N[C@@H](C)C(=O)N1CCC[C@H]1C(=O)N1CCC[C@H]1C(=O)N1CCC[C@H]1C(=O)N[C@@H](CO)C(=O)N[C@@H](CCCCN)C(N)=O)C(C)C (stereo partly shown) [P015]	32	0.17	31.4 ± 1.35	26.8 ± 0.557		
CC[C@H](C)[C@H](NC(=O)C(C)(C)NC(=O)[C@H](Cc1ccc(O)cc1)NC(=O)[C@H](CC(=O)O)NC(=O)[C@H](CO)NC(=O)[C@@H](NC(=O)C(C)(Cc1ccccc1)NC(=O)[C@@H](NC(=O)CNC(=O)[C@H](CCC(=O)O)NC(=O)C(C)(C)NC(=O)[C@@H](N)Cc1ccc(O)cc1)[C@@H](C)O)[C@@H](C)O)C(=O)NC(C)(C)C(=O)N[C@@H](CC(C)C)C(=O)N[C@@H](CC(=O)O)C(=O)N[C@@H](CCCCN)C(=O)N[C@@H](CCC(N)=O)C(=O)N[C@@H](C)C(=O)N[C@@H](CCC(N)=O)C(=O)N[C@@H](C)C(=O)N[C@@H](CCC(=O)O)C(=O)N[C@@H](Cc1ccccc1)C(=O)N[C@H](C(=O)N[C@@H](CCCCN)C(=O)N[C@@H](Cc1c[nH]c2ccccc12)C(=O)N[C@@H](CC(C)C)C(=O)N[C@@H](CC(C)C)C(=O)N[C@@H](CCCCN)C(=O)NCC(=O)NCC(=O)N1CCC[C@H]1C(=O)N[C@@H](CO)C(=O)N[C@@H](CO)C(=O)NCC(=O)N[C@@H](C)C(=O)N1CCC[C@H]1C(=O)N1CCC[C@H]1C(=O)N1CCC[C@H]1C(=O)N[C@@H](CO)C(=O)N[C@@H](CCCCN)C(N)=O)C(C)C (stereo partly shown) [P001, reference compound] (HELM PEPTIDE1{Y.[Aib].E.G.T.[CC(Cc1ccccc1)(N[*:1])C(=O)[*:2]].T.S.D.Y.[Aib].I.[Aib].L.D.K.Q.A.Q.A.E.F.V.K.W.L.L.K.G.G.P.S.S.G.A.P.P.P.S.K.[am]}$$$$V2.0; N-terminus assumed)		19.52			32	8.82
